Consider eight molecules from patent US10392383B2, “3-(1H-benzo[d]imidazol-2-yl)-1H-pyrazolo[4,3-b]pyridines and therapeutic uses thereof” (Samumed, LLC, priority 2015, dated 2019).

In general, inhibition refers to the relative decrease from the control value, in per cent.

Common to all, as to assay type: cell-based
For one test, the system named is SW480 colon cancer cells. Nature of the test: Cell viability assay (CellTiter-Blue) in SW480 cells. Particulars: Homo sapiens, 96 h, four days; for inhibition at 10 µM: read-out: percent inhibition at 10 μM (given for EC50 of >10 μM); for EC50: CellTiter-Blue, 10 μM to 0.0045 μM. An outline of the steps:
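4-day exposure, 37 °C/5% CO2; ~2×10^3 SW480 cells/well; 8-pt 1:3 curve, 10–0.0045 μM, duplicates vs DMSO controls. Resazurin→resorufin fluorescence readout, ~3 h. EC50 by nonlinear fit; if >10 μM, % inhibition at 10 μM reported.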
Background: Alamar Blue is a resazurin reagent that responds to reducing activity.

A further test relates to IL-6 (THP-1 cells). Nature of the test: IL-6 inhibition in LPS-stimulated THP-1 monocytes (HTRF). The conditions noted are these: Homo sapiens, IL-6 HTRF; for EC50: 500 ng/mL LPS, Table 6; for inhibition at 10 µM: LPS, Table 6, read-out: percent inhibition at 10 μM (given in parentheses for EC50 >10 μM). In a few lines:
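THP-1 cells in 1% FBS pre-incubated 2 h with compound (10-point 1:3 series from 10 μM, 0.1% DMSO), then stimulated with 500 ng/mL LPS for 22 h at 37 °C. IL-6 measured by HTRF 665/620 ratio, normalized to DMSO; EC50 by four-parameter fit, or % inhibition at 10 μM when EC50 >10 μM.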
A general note: In TR-FRET formats the signal depends on donor and acceptor labels being close together.

Test [1] has as its system primary human mesenchymal stem cells (hMSCs). Nature of the test: Induction of chondrogenesis in human mesenchymal stem cells (nodule staining with Rhodamine B / Nile Red). Particulars: for Emax: TGF-β3 (10 ng/mL) as positive control, read-out: Max. Activity as % TGF-β3 activity; for EC50: concentration required to induce 50% levels of chondrogenesis vs TGF-β3, read-out: Conc (nM) of 50% TGF-β3 activity. As to the method:
Representative compounds were screened using primary human mesenchymal stem cells (hMSCs) to determine their ability to induce chondrogenesis (process by which cartilage is developed).
Human Mesenchymal Stem Cell Culture: Primary human mesenchymal stem cells (hMSCs) were purchased from Lonza (Walkersville, Md.) and expanded in Mesenchymal Stem Cell Growth Media (Lonza). Cells between passage 3 and 6 were used for the experiments.
Compound Screening: Each compound was dissolved in DMSO as a 10 mM stock and used to prepare compound source plates. For the 96 well assay, serial dilution (1:3, 6-point dose-response curves from 2700 nM to 10 nM) and compound transfer was performed using the ECHO 550 (Labcyte, Sunnyvale, Calif.) into 96-well clear bottom assay plates (Greiner Bio-One) with appropriate DMSO backfill for a final DMSO concentration of 0.03%. hMSCs were plated at 20,000 cells/well in 250 μL/well Incomplete Chondrogenic Induction Medium (Lonza; DMEM, dexamethasone, ascorbate, insulin-transferrin-selenium [ITS supplement], gentamycin-amphotericin [GA-1000], sodium pyruvate, proline and L-glutamine). TGF-β3 (10 ng/mL) was used as a positive control for differentiation while negative control wells were treated with 75 nL DMSO for normalization and calculating EC50 values. For the 384 well assay, serial dilution (1:3, 8-point dose-response curves from 5000 nM to 2.2 nM) and compound transfer was performed using the ECHO 550 (Labcyte, Sunnyvale, Calif.) into 384-well clear bottom assay plates (Greiner Bio-One) with appropriate DMSO backfill for a final DMSO concentration of 0.03%. hMSCs were plated at 8,000 cells/well in 80 μL/well Incomplete Chondrogenic Induction Medium (Lonza; DMEM, dexamethasone, ascorbate, insulin-transferrin-selenium [ITS supplement], gentamycin-amphotericin [GA-1000], sodium pyruvate, proline and L-glutamine). TGF-β3 (10 ng/mL) was used as a positive control for differentiation while negative control wells were treated with 25 nL DMSO for normalization and calculating EC50 values. Cells were incubated at 37° C. and 5% CO2 for 6 days. To image chondrogenic nodules, the cells were fixed using 4% formaldehyde (Electron Microscopy Sciences), and stained with 2 μg/mL Rhodamine B (Sigma-Aldrich) and 20 μM Nile Red (Sigma-Aldrich) [Johnson K., et. al, A Stem Cell-Based Approach to Cartilage Repair, Science, (2012), 336(6082), 717-721]. The nodules imaged (25 images per well for 96 well plates and 9 images per well for 384 well plates at 10× magnification) by excitation at 531 nm and emission at 625 nm and quantified using the CellInsight CX5 (Thermo Scientific). Area of nodules in each well was normalized to the average of 3 DMSO treated wells on the same plate using Excel (Microsoft Inc.). The normalized averages (fold change over DMSO) of 2 or 3 replicate wells for each compound concentration were calculated. Due to solubility limitations of some of the compounds, curve fitting was incomplete leading to inaccurate EC50 determinations.
Using TGF-β3 as a positive control, the concentration of representative compounds required to induce 50% levels of chondrogenesis is reported. In addition, the maximum activity of each compound and the respective dose that each compound reached maximum chondrogenesis activity is reported.

Turning to `CC(C)C(=O)Nc1cncc(-c2ccc3[nH]nc(-c4nc5c(N6CCN(C)CC6)cccc5[nH]4)c3n2)c1` [Compound 233, N-(5-(3-(4-(4-Methylpiperazin-1-yl)-1H-benzo[d]imidazol-2-yl)-1H-pyrazolo[4,3-b]pyridin-5-yl)pyridin-3-yl)isobutyramide], the inhibition at 10 µM in the test with SW480 colon cancer cells was 6.4%; with IL-6 (THP-1 cells), 42.9%. Further, the EC50 was greater than 10000 nM in the test on SW480 colon cancer cells, greater than 10000 nM with IL-6 (THP-1 cells) and 30 nM in test [1]. Besides, the Emax in test [1] stood at 52%.

In the case of `O=C(Cc1ccccc1)Nc1cncc(-c2ccc3[nH]nc(-c4nc5ccccc5[nH]4)c3n2)c1` [Compound 262, N-(5-(3-(1H-Benzo[d]imidazol-2-yl)-1H-pyrazolo[4,3-b]pyridin-5-yl)pyridin-3-yl)-2-phenylacetamide], in the test on SW480 colon cancer cells, the inhibition at 10 µM is 13.9% and the EC50 is greater than 10000 nM. In the test on IL-6 (THP-1 cells), this molecule gave an EC50 of 1090 nM. Moreover, the Emax in test [1] was 37%.

Regarding `Fc1cccc(-c2cccc3[nH]c(-c4n[nH]c5ccc(C6=CCNCC6)nc45)nc23)c1` [Compound 506, 3-(4-(3-Fluorophenyl)-1H-benzo[d]imidazol-2-yl)-5-(1,2,3,6-tetrahydropyridin-4-yl)-1H-pyrazolo[4,3-b]pyridine], the EC50 is 4160 nM with SW480 colon cancer cells and greater than 10000 nM with IL-6 (THP-1 cells). Moreover, in the test with IL-6 (THP-1 cells), the inhibition at 10 µM is 25.9%. The Emax in test [1] turned out to be 42%.

`Fc1cccc(-c2cccc3[nH]c(-c4n[nH]c5ccc(-c6cn[nH]c6)nc45)nc23)c1` [Compound 507, 3-(4-(3-Fluorophenyl)-1H-benzo[d]imidazol-2-yl)-5-(1H-pyrazol-4-yl)-1H-pyrazolo[4,3-b]pyridine] had an EC50 in the test with SW480 colon cancer cells of 975 nM. Besides, in the test on IL-6 (THP-1 cells), the EC50 was greater than 10000 nM and the inhibition at 10 µM came to 31.7%. Moreover, in test [1], the Emax came to 53%.

In the case of `Fc1cccc(-c2cccc3[nH]c(-c4n[nH]c5ccc(-c6cnccn6)nc45)nc23)c1` [Compound 520, 3-(4-(3-Fluorophenyl)-1H-benzo[d]imidazol-2-yl)-5-(pyrazin-2-yl)-1H-pyrazolo[4,3-b]pyridine], the EC50 in the test with SW480 colon cancer cells came out at 1790 nM. For the same molecule, in the test on IL-6 (THP-1 cells), the EC50 was greater than 10000 nM and the inhibition at 10 µM was 43.3%. For the same molecule, in test [1], the Emax is 64% and the EC50 came out at 2 nM.

Consider `CN(C)CCOc1cncc(-c2ccc3[nH]nc(-c4nc5c(-c6cccs6)cccc5[nH]4)c3n2)c1` [Compound 707, N,N-Dimethyl-2-((5-(3-(4-(thiophen-2-yl)-1H-benzo[d]imidazol-2-yl)-1H-pyrazolo[4,3-b]pyridin-5-yl)pyridin-3-yl)oxy)ethan-1-amine], for which the EC50 in the test with SW480 colon cancer cells came out at 1540 nM; with IL-6 (THP-1 cells), 5890 nM; in test [1], 10 nM. Besides, the Emax in test [1] came out at 142%.

For the molecule `CN(C)CC(=O)Nc1cncc(-c2ccc3[nH]nc(-c4nc5c(-c6cccc(F)c6)cccc5[nH]4)c3n2)c1` [Compound 969, 2-(Dimethylamino)-N-(5-(3-(4-(3-fluorophenyl)-1H-benzo[d]imidazol-2-yl)-1H-pyrazolo[4,3-b]pyridin-5-yl)pyridin-3-yl)acetamide], in the test on SW480 colon cancer cells, the inhibition at 10 µM turned out to be 25.3% and the EC50 is greater than 10000 nM. In the test on IL-6 (THP-1 cells), the EC50 is greater than 10000 nM and the inhibition at 10 µM turned out to be 39%. In addition, the Emax in test [1] came out at 44%.

Molecule `COc1cccc(-c2cccc3[nH]c(-c4n[nH]c5ccc(-c6cccnc6)nc45)nc23)c1` [Compound 994, 3-(4-(3-Methoxyphenyl)-1H-benzo[d]imidazol-2-yl)-5-(pyridin-3-yl)-1H-pyrazolo[4,3-b]pyridine] returned an EC50 in the test on SW480 colon cancer cells of 5940 nM. Further, in the test with IL-6 (THP-1 cells), the EC50 is greater than 10000 nM and the inhibition at 10 µM amounted to 32.2%. Further, in test [1], the Emax worked out at 70% and the EC50 came to 100 nM.
